Reference: the supplement of paper PMC10307832

Columns and labels:
Test in all cases: relative viability (nuclei count vs DMSO), 5 days (fraction); higher = more cells survive
Tozasertib + Pemetrexed = compound: Cc1cc(Nc2cc(N3CCN(C)CC3)nc(Sc3ccc(NC(=O)C4CC4)cc3)n2)n[nH]1 [Tozasertib] + Nc1nc2[nH]cc(CCc3ccc(C(=O)N[C@@H](CCC(=O)O)C(=O)O)cc3)c2c(=O)[nH]1 [Pemetrexed] (partner 0.2 µM)
Outline: (§1)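 Five library-drug doses in √10 steps were combined with a fixed anchor-drug dose, or a single drug was given alone, by pin tool to lung cancer cell lines in 1536-well plates the day after seeding. Nuclei were stained and counted after 5 days. Relative viability is the nuclei count in treated wells over that in vehicle wells, taken as the median of duplicate plates.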

Tozasertib + Luminespib = compound: Cc1cc(Nc2cc(N3CCN(C)CC3)nc(Sc3ccc(NC(=O)C4CC4)cc3)n2)n[nH]1 [Tozasertib] + CCNC(=O)c1noc(-c2cc(C(C)C)c(O)cc2O)c1-c1ccc(CN2CCOCC2)cc1 [Luminespib] (partner 0.01 µM)
Outline: as §1

Tozasertib + AZD7762 = compound: Cc1cc(Nc2cc(N3CCN(C)CC3)nc(Sc3ccc(NC(=O)C4CC4)cc3)n2)n[nH]1 [Tozasertib] + NC(=O)Nc1cc(-c2cccc(F)c2)sc1C(=O)N[C@H]1CCCNC1 [AZD7762] (partner 0.2 µM)
Outline: as §1

Tozasertib + Alpelisib = compound: Cc1cc(Nc2cc(N3CCN(C)CC3)nc(Sc3ccc(NC(=O)C4CC4)cc3)n2)n[nH]1 [Tozasertib] + Cc1nc(NC(=O)N2CCC[C@H]2C(N)=O)sc1-c1ccnc(C(C)(C)C(F)(F)F)c1 [Alpelisib] (partner 2 µM)
Outline: as §1

Tozasertib + Decitabine = compound: Cc1cc(Nc2cc(N3CCN(C)CC3)nc(Sc3ccc(NC(=O)C4CC4)cc3)n2)n[nH]1 [Tozasertib] + Nc1ncn([C@H]2C[C@H](O)[C@@H](CO)O2)c(=O)n1 [Decitabine] (partner 2 µM)
Outline: as §1

Cell Line | relative viability (Tozasertib + Pemetrexed; first compound 0.004 µM) | relative viability (Tozasertib + Pemetrexed; first compound 0.01265 µM) | relative viability (Tozasertib + Pemetrexed; first compound 0.04 µM) | relative viability (Tozasertib + Pemetrexed; first compound 0.1265 µM) | relative viability (Tozasertib + Luminespib; first compound 0.004 µM) | relative viability (Tozasertib + Luminespib; first compound 0.01265 µM) | relative viability (Tozasertib + Luminespib; first compound 0.1265 µM) | relative viability (Tozasertib + AZD7762; first compound 0.004 µM) | relative viability (Tozasertib + AZD7762; first compound 0.01265 µM) | relative viability (Tozasertib + AZD7762; first compound 0.04 µM) | relative viability (Tozasertib + AZD7762; first compound 0.1265 µM) | relative viability (Tozasertib + Alpelisib; first compound 0.004 µM) | relative viability (Tozasertib + Alpelisib; first compound 0.01265 µM) | relative viability (Tozasertib + Alpelisib; first compound 0.04 µM) | relative viability (Tozasertib + Alpelisib; first compound 0.1265 µM) | relative viability (Tozasertib + Decitabine; first compound 0.004 µM) | relative viability (Tozasertib + Decitabine; first compound 0.01265 µM) | relative viability (Tozasertib + Decitabine; first compound 0.04 µM) | relative viability (Tozasertib + Decitabine; first compound 0.1265 µM) | relative viability (Tozasertib + Luminespib; first compound 0.04 µM)
201T | 0.33 | 0.283 | 0.377 | 0.362 | 1.12 | 1.06 | 1.11 | 0.549 | 0.63 | 0.581 | 0.75 | 0.993 | 0.968 | 1.06 | 1 | 0.854 | 0.844 | 0.874 | 0.83 | 
A549 |  |  |  |  |  |  |  |  |  |  |  | 0.686 | 0.826 | 0.759 | 0.211 | 0.27 | 0.266 | 0.282 | 0.199 | 
A-427 | 1 |  | 0.973 | 0.75 | 0.983 | 0.857 | 0.481 | 0.796 | 0.799 | 0.715 | 0.409 | 1.06 | 1.1 | 1.17 | 0.751 | 0.563 | 0.528 | 0.627 | 0.426 | 0.97
ABC-1 |  |  |  |  | 0.521 | 0.638 | 0.686 | 1.01 | 0.789 |  | 1.16 | 0.916 | 1.06 | 0.721 | 0.816 | 0.989 | 1.03 | 0.539 | 0.44 | 0.402
BEN | 0.847 | 0.72 | 0.923 | 0.487 | 0.302 | 0.279 | 0.268 | 0.761 | 0.678 |  | 0.532 | 1.04 | 0.948 | 1.14 | 0.931 | 0.739 | 0.688 | 0.755 | 0.501 | 0.332
CAL-12T | 1.3 | 1.14 | 1.25 | 1.01 | 0.288 | 0.405 | 0.368 | 0.563 | 0.553 | 0.545 | 0.494 | 1.31 | 1.23 | 1.33 | 1.08 |  |  |  |  | 0.58
COR-L23 | 0.206 | 0.206 | 0.187 | 0.179 | 0.836 | 0.619 | 0.637 |  |  |  |  | 0.827 | 0.763 | 0.585 | 0.699 | 0.42 | 0.384 | 0.439 | 0.247 | 0.618
COR-L 105 | 1.05 | 1.14 | 1.23 | 1.15 | 0.842 | 0.966 | 0.609 |  |  |  |  |  | 1.29 | 1.32 | 0.739 | 0.717 | 0.61 | 0.69 | 0.558 | 0.761
ChaGo-K-1 | 0.255 | 0.268 | 0.254 | 0.264 | 0.643 | 0.672 | 0.45 | 0.902 | 0.851 | 0.859 | 0.576 |  |  |  |  | 0.506 | 0.463 | 0.49 | 0.446 | 0.623
EKVX | 0.371 | 0.351 | 0.382 | 0.351 | 0.753 | 0.872 | 0.694 | 0.703 | 0.584 | 0.572 | 0.236 | 0.779 | 0.846 | 1.01 | 0.878 | 0.265 | 0.345 | 0.354 | 0.316 | 0.827
EMC-BAC-2 | 0.464 | 0.407 | 0.467 | 0.428 | 1.15 | 1.11 | 0.827 | 1.15 | 1.12 | 0.93 | 0.47 | 0.771 |  | 0.724 | 0.428 | 0.977 | 0.86 | 0.918 | 0.58 | 1.3
EPLC-272H | 0.341 | 0.381 | 0.258 | 0.206 | 0.267 | 0.307 | 0.288 | 0.147 | 0.249 | 0.192 | 0.301 | 0.845 | 0.789 | 1.11 |  | 0.369 | 0.325 | 0.368 | 0.318 | 0.197
H3255 | 0.519 | 0.579 | 0.567 | 0.552 | 0.753 | 0.67 | 0.879 | 0.837 | 0.786 | 0.884 | 0.684 | 0.592 | 0.654 | 0.762 | 0.658 | 0.71 | 0.475 | 0.592 | 0.558 | 1.02
HARA | 0.24 | 0.27 | 0.274 | 0.203 | 0.659 | 0.681 | 0.484 | 0.353 | 0.247 | 0.209 | 0.123 | 0.955 | 0.795 | 0.994 | 0.305 | 0.495 | 0.486 | 0.572 | 0.203 | 0.496
HCC-15 | 0.232 | 0.234 | 0.228 | 0.228 | 0.296 | 0.282 | 0.238 | 1.49 | 1.06 | 1.26 | 0.964 | 0.942 | 0.841 |  | 0.728 | 0.66 | 0.496 | 0.64 | 0.339 | 0.306
HCC-44 | 0.677 | 0.552 | 0.604 | 0.599 | 1.04 | 0.829 | 0.796 | 1.05 | 0.994 | 0.929 | 0.845 | 0.779 | 0.773 | 0.836 |  | 0.935 | 0.917 | 0.87 | 0.766 | 0.565
HCC-78 | 0.938 | 0.901 | 0.919 | 0.881 |  |  |  | 0.806 | 0.519 | 0.668 | 0.477 | 0.38 | 0.305 | 0.46 | 0.241 | 0.746 | 0.598 | 0.763 | 0.595 | 
HCC-366 | 0.173 | 0.145 | 0.184 | 0.136 |  |  |  | 0.355 | 0.282 | 0.337 | 0.203 | 0.37 | 0.476 | 0.558 | 0.13 | 0.32 | 0.314 | 0.314 | 0.169 | 
